# Target: T1, LXRβ (Homo sapiens, UniProt P55055)
# T1 construct: Co-transfection expression plasmids, comprising full-length LXRα (pCMX-h LXRα or LXRβ (pCMX-hLXRβ)); expressed in transfected cells; host or cells: CV-1 African green monkey kidney cells, transient transfection with pCMX-hLXRβ
# T1 sequence (P55055 1-460): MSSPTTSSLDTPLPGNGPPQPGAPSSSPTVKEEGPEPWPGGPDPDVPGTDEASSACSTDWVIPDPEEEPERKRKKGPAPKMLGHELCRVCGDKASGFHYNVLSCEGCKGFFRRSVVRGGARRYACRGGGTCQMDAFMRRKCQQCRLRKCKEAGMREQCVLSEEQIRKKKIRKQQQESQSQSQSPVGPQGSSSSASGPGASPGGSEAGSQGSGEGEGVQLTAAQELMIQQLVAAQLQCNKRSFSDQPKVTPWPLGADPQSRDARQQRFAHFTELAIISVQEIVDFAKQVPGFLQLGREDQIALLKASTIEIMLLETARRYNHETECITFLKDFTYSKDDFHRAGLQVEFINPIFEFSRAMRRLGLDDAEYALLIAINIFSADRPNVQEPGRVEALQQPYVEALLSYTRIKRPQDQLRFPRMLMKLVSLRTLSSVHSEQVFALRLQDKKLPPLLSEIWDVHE
# T1 sequence (P19793 1-462 partner): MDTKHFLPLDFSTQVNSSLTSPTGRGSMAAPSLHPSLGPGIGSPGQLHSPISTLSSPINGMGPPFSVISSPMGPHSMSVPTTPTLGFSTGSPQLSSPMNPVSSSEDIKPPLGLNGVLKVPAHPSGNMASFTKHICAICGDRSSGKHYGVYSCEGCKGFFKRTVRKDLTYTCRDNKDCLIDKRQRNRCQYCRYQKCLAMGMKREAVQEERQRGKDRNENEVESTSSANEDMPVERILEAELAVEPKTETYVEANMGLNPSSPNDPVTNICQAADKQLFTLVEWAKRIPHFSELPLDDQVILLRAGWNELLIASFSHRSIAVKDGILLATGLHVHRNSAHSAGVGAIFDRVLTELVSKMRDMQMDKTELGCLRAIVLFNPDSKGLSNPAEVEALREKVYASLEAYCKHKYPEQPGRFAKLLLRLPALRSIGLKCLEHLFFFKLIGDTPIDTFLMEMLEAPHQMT
# Assay: LXR/LXRE co-transfection assay (luciferase reporter) in CV-1 cells, LXRβ
# Type: cell-based
# Conditions: for EC50: CV-1 cells transfected with pCMX-hLXRβ and LXREx1-Tk-Luciferase, 20 hours incubation, read-out: LXRbeta agonism EC50; for Emax / LXRbeta % EFFICACY: CV-1 cells, relative to maximum response of high control N-(3-((4-fluorophenyl)-(naphthalene-2-sulfonyl)amino)propyl)-2,2-dimethylpropionamide; for Emax: read-out: LXRbeta % EFFICACY
# Summary of the method: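 CV-1 cells transiently co-transfected with full-length human LXRβ, LXRE-Tk-luciferase reporter and β-galactosidase control, then exposed to compound (≤0.5% DMSO) for 20 h at 37 °C before luminescence read. EC50 from 10-point, half-log dose curves; efficacy relative to the sulfonamide high control, means of 2–3 experiments.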
Compound,EC50 [nM],Emax [%],LXRbeta % EFFICACY [%]
"Cc1nc(-c2ccc3c(c2)OC(F)(F)O3)c(-c2cc(-c3cc(F)c(CO)c(S(C)(=O)=O)c3)ccc2-c2cc(C(C)(C)C#N)nn2C)o1 [Example 67, 2-(5-(3-(4-(2,2-difluorobenzo[d][1,3]dioxol-5-yl)-2-methyloxazol-5-yl)-3′-fluoro-4′-(hydroxymethyl)-5′-(methylsulfonyl)biphenyl-4-yl)-1-methyl-1H-pyrazol-3-yl)-2-methylpropanenitrile]",24,–,79
"Cc1nc(-c2ccc(OC(F)(F)F)cc2)c(-c2cc(-c3cccc(S(C)(=O)=O)c3)ccc2-n2ccc(C(C)(C)O)n2)o1 [Example 316, 2-(1-(3-(2-methyl-4-(4-(trifluoromethoxy)phenyl)oxazol-5-yl)-3′-(methylsulfonyl)biphenyl-4-yl)-1H-pyrazol-3-yl)propan-2-ol]",293,24,–
"Cc1nc(-c2ccc3c(c2)OC(F)(F)O3)c(-c2cc(-c3cc(F)c(CO)c(S(C)(=O)=O)c3)ccc2-c2cc(C(F)(F)C(=O)NC(C)C)nn2C)o1 [Example 82, 2-(5-(3-(4-(2,2-difluorobenzo[d][1,3]dioxol-5-yl)-2-methyloxazol-5-yl)-3′-fluoro-4′-(hydroxymethyl)-5′-(methylsulfonyl)biphenyl-4-yl)-1-methyl-1H-pyrazol-3-yl)-2,2-difluoro-N-isopropylacetamide]",59,33,–
"Cc1nc(-c2ccc3c(c2)OC(F)(F)O3)c(-c2cc(-c3cccc(S(C)(=O)=O)c3)ccc2-c2cc(C(C)O)nn2C)o1 (stereo not shown) [Example 101, 1-(5-(3-(4-(2,2-difluorobenzo[d][1,3]dioxol-5-yl)-2-methyloxazol-5-yl)-3′-(methylsulfonyl)-[1,1′-biphenyl]-4-yl)-1-methyl-1H-pyrazol-3-yl)ethanol]",79,–,50
"Cc1nc(-c2ccc3c(c2)OC(F)(F)O3)c(-c2cc(-c3cc(F)c(CO)c(S(C)(=O)=O)c3)ccc2-n2nc(C(F)(F)F)cc2C)o1 [Example 329, (3′-(4-(2,2-difluorobenzo[d][1,3]dioxol-5-yl)-2-methyloxazol-5-yl)-3-fluoro-4′-(5-methyl-3-(trifluoromethyl)-1H-pyrazol-1-yl)-5-(methylsulfonyl)biphenyl-4-yl)methanol]",3,92,–
"Cc1nc(-c2ccc(OC(F)(F)F)cc2)c(-c2cc(-c3ccc(CO)c(S(C)(=O)=O)c3)ccc2-n2ccc(C(C)(C)C#N)n2)o1 [Example 378, 2-(1-(4′-(hydroxymethyl)-3-(2-methyl-4-(4-(trifluoromethoxy)phenyl)oxazol-5-yl)-3-(methylsulfonyl)-[1,1′-biphenyl]-4-yl)-1H-pyrazol-3-yl)-2-methylpropanenitrile]",15,29,–
"Cn1nc(C(F)(F)C(C)(C)O)cc1-c1ccc(-c2cc(F)c(CO)c(S(C)(=O)=O)c2)cc1-n1nncc1-c1ccc(OC(F)(F)F)cc1 [Example 3, 1,1-difluoro-1-(5-(3′-fluoro-4′-(hydroxymethyl)-5′-(methylsulfonyl)-3-(5-(4-(trifluoromethoxy)phenyl)-1H-1,2,3-triazol-1-yl)biphenyl-4-yl)-1-methyl-1H-pyrazol-3-yl)-2-methylpropan-2-ol]",245,73,–

# The next lines start with the values.
EC50 [nM],Emax [%],LXRbeta % EFFICACY [%],Compound
30,86,–,"Cc1nc(-c2ccc(OC(F)F)c(F)c2)c(-c2cc(-c3cc(F)c(CO)c(S(C)(=O)=O)c3)ccc2-c2cc(C(F)(F)CO)nn2C)o1 [Example 77, 2-(5-(3-(4-(4-(difluoromethoxy)-3-fluorophenyl)-2-methyloxazol-5-yl)-3′-fluoro-4′-(hydroxymethyl)-5′-(methylsulfonyl)biphenyl-4-yl)-1-methyl-1H-pyrazol-3-yl)-2,2-difluoroethanol]"
25,45,–,"Cn1nc(C(F)(F)C(N)=O)cc1-c1ccc(-c2cc(F)c(CO)c(S(C)(=O)=O)c2)cc1-c1oc(C2CC2)nc1-c1ccc2c(c1)OC(F)(F)O2 [Example 46, 2-(5-(3-(2-cyclopropyl-4-(2,2-difluorobenzo[d][1,3]dioxol-5-yl)oxazol-5-yl)-3′-fluoro-4′-(hydroxymethyl)-5′-(methylsulfonyl)biphenyl-4-yl)-1-methyl-1H-pyrazol-3-yl)-2,2-difluoroacetamide]"
30,72,–,"Cc1nc(-c2cc(-c3cc(F)c(CO)c(S(C)(=O)=O)c3)ccc2-c2cc(C(C)(C)CO)nn2C)c(-c2ccc3c(c2)OC(F)(F)O3)o1 [Example 62, 2-(5-(3-(5-(2,2-difluorobenzo[d][1,3]dioxol-5-yl)-2-methyloxazol-4-yl)-3′-fluoro-4′-(hydroxymethyl)-5′-(methylsulfonyl)biphenyl-4-yl)-1-methyl-1H-pyrazol-3-yl)-2-methylpropan-1-ol]"
321,49,–,"Cc1nc(-c2ccc(C(F)(F)F)cc2)c(-c2cc(-c3cccc(S(C)(=O)=O)c3)ccc2-n2cc(Cl)c(C(F)(F)F)n2)o1 [Example 437, 5-(4-(4-chloro-3-(trifluoromethyl)-1H-pyrazol-1-yl)-3′-(methylsulfonyl)-[1,1′-biphenyl]-3-yl)-2-methyl-4-(4-(trifluoromethyl)phenyl)oxazole]"
70,82,–,"CCC(F)(F)c1cc(-c2ccc(-c3cccc(S(C)(=O)=O)c3)cc2-n2nncc2-c2ccc(OC(F)(F)F)cc2)n(C)n1 [Example 9, 1-(4-(3-(1,1-difluoropropyl)-1-methyl-1H-pyrazol-5-yl)-3′-(methylsulfonyl)biphenyl-3-yl)-5-(4-(trifluoromethoxy)phenyl)-1H-1,2,3-triazole]"
715,37,–,"Cc1nc(-c2ccc3c(c2)OC(F)(F)O3)c(-c2cc(-c3cc(F)c(CO)c(S(C)(=O)=O)c3)ccc2-c2cc(C(F)(F)C(=O)NCCO)nn2C)o1 [Example 86, 2-(5-(3-(4-(2,2-difluorobenzo[d][1,3]dioxol-5-yl)-2-methyloxazol-5-yl)-3′-fluoro-4′-(hydroxymethyl)-5′-(methylsulfonyl)biphenyl-4-yl)-1-methyl-1H-pyrazol-3-yl)-2,2-difluoro-N-(2-hydroxyethyl)acetamide]"
29,93,–,"Cc1nc(-c2cc(-c3cccc(S(C)(=O)=O)c3)ccc2-n2nc(C(F)(F)F)cc2Cl)c(-c2ccc3c(c2)OC(F)(F)O3)o1 [Example 412, 4-(4-(5-chloro-3-(trifluoromethyl)-1H-pyrazol-1-yl)-3′-(methylsulfonyl)biphenyl-3-yl)-5-(2,2-difluorobenzo[d][1,3]dioxol-5-yl)-2-methyloxazole]"
1110,58,–,"Cc1nc(-c2ccc(OC(F)(F)F)cc2)c(-c2cc(-c3cc(F)c(CO)c(S(C)(=O)=O)c3)ccc2-n2ccc(CO)n2)o1 [Example 322, (3-fluoro-4′-(3-(hydroxymethyl)-1H-pyrazol-1-yl)-3′-(2-methyl-4-(4-(trifluoromethoxy)phenyl)oxazol-5-yl)-5-(methylsulfonyl)biphenyl-4-yl)methanol]"
67,91,–,"COc1ncc(-c2oc(C)nc2-c2cc(-c3cccc(S(C)(=O)=O)c3)ccc2-n2ccc(C(F)(F)F)n2)cc1F [Example 407, 5-(5-fluoro-6-methoxypyridin-3-yl)-2-methyl-4-(3′-(methylsulfonyl)-4-(3-(trifluoromethyl)-1H-pyrazol-1-yl)biphenyl-3-yl)oxazole]"
123,38,–,Cc1nc(-c2ccc(OC(F)(F)F)cc2)c(-c2cc(-c3cc(F)c(CO)c(S(C)(=O)=O)c3)ccc2-n2ccc(C(=O)NCC(F)(F)F)n2)o1 [Example 372]
